In PubChem BioAssay (NCI):
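Briefly, cells in 96-well plates were exposed to five compound concentrations for 48 h, and endpoints were estimated by linear interpolation. The concentration for 50% growth inhibition is given as GI50. At the TGI there is no net growth.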

Experiments:
Assay in all cases: DTP human tumour cell line panel, 48 h
SF-268 CNS = test system: SF-268 CNS
SK-MEL-2 melanoma = test system: SK-MEL-2 melanoma
SK-MEL-28 melanoma = test system: SK-MEL-28 melanoma
MALME-3M melanoma = test system: MALME-3M melanoma
SNB-19 CNS = test system: SNB-19 CNS
EKVX NSCLC = test system: EKVX NSCLC
NCI/ADR-RES ovarian = test system: NCI/ADR-RES ovarian
OVCAR-4 ovarian = test system: OVCAR-4 ovarian
CAKI-1 renal = test system: CAKI-1 renal
MDA-MB-435 = test system: MDA-MB-435

Compound | TGI (SF-268 CNS) [µM] | TGI (SK-MEL-2 melanoma) [µM] | TGI (SK-MEL-28 melanoma) [µM] | TGI (MALME-3M melanoma) [µM] | TGI (SNB-19 CNS) [µM] | TGI (EKVX NSCLC) [µM] | TGI (NCI/ADR-RES ovarian) [µM] | TGI (OVCAR-4 ovarian) [µM] | TGI (CAKI-1 renal) [µM] | TGI (MDA-MB-435) [µM] | GI50 (SF-268 CNS) [µM] | GI50 (EKVX NSCLC) [µM] | GI50 (NCI/ADR-RES ovarian) [µM] | GI50 (SK-MEL-2 melanoma) [µM] | GI50 (SK-MEL-28 melanoma) [µM] | GI50 (MALME-3M melanoma) [µM] | GI50 (SNB-19 CNS) [µM] | GI50 (OVCAR-4 ovarian) [µM] | GI50 (MDA-MB-435) [µM]
CCOC(=O)C1=C(C(=O)OCC)SC2(S1)C(C(=O)OCC)=C(C(=O)OCC)Sc1c2ssc1=O | 4.19 | 5.5 | 3.93 | 4.19 | 15.4 | 5.78 | 7.64 | 2.68 | 5.15 | 3.93 |  |  |  |  |  |  |  |  | 
COc1ccccc1C#C/C=C\C#Cc1ccccc1C#N | > 100 | 51.8 | > 100 | 47.7 | > 100 | 58.7 | > 100 | > 100 | 61.5 | 14.5 |  |  |  |  |  |  |  |  | 
N#CC1(CCCI)CCCC1 | 41.3 | 81.8 | 57.3 | 80.6 | 31.6 | > 100 |  |  |  |  |  |  |  |  |  |  |  |  | 
C[C@]12CC[C@H]3[C@@H](CC=C4C[C@@H](O)CC[C@@]43C)[C@@H]1C/C(=C\c1ccncc1)[C@@H]2O | 54.4 | 45.9 | 51.3 | 62.1 | 62.1 | 49.1 | 67.7 | 39.5 | 57.4 | 47.9 |  |  |  |  |  |  |  |  | 
Cc1[nH]c2ncn3[nH]c(=S)nc3c2c1Cc1ccccc1 | > 100 | > 100 | > 100 | > 100 | > 100 | > 100 | > 100 | > 100 | > 100 | > 100 |  |  |  |  |  |  |  |  | 
Cc1ncc(C(=O)Nc2ccc(CN3CCN(C)CC3)c(C(F)(F)F)c2)cc1C#Cc1cnc(N)c2ccc(C#N)cc12 | > 100 |  |  |  |  | 29.6 | 5.05 |  |  |  | 0.0399 | 0.0827 | 1.81 |  |  |  |  |  | 
CC(C)CCN(CCC(C)C)CC(=O)Nc1ccc(S(=O)(=O)c2ccc(NC(=O)CN(CCC(C)C)CCC(C)C)cc2)cc1 | 4.68 | 6.14 | 9.98 | 3.51 | 10.3 | 18.8 | > 100 | 12.7 |  | 6.07 | 1.51 | 3.27 | 2.93 | 2.11 | 2.64 | 1.57 | 2.19 | 2.56 | 2.15
O=C1Nc2cccc(Cl)c2/C1=C\c1cccnc1 | 25.6 | 25.9 | > 100 | 24 | 16.3 | 93.1 | 15.9 | 31.7 | 24.2 | 19.8 |  |  |  |  |  |  |  |  | 
O=C1N[C@H]2C(=O)c3c(Br)sc(Br)c3[C@H]2O1 | 14.2 | 31.9 | 10.7 | 11.3 | 30.7 | 13 | 39 | 31.3 | 9.81 | 26.7 |  |  |  |  |  |  |  |  | 
COC(=O)c1c(O)ccc2c1c1c(n2CCc2ccc(OC)c(OC)c2)C(=O)c2ccccc2C1=O | 41 | 32.8 | 24.8 | 29.2 | > 100 | 40.8 | 31.7 | 35.6 | 38.3 | 29.2 |  |  |  |  |  |  |  |  | 
Nc1ccc(Oc2ccc(C34CC5CC(C3)CC(c3ccc(Oc6ccc(N)cc6C(F)(F)F)cc3)(C5)C4)cc2)c(C(F)(F)F)c1 | 43.9 | 28.8 | > 100 | 58.5 | 48.9 | 30.9 | 54.9 | > 100 | > 100 | 84.2 |  |  |  |  |  |  |  |  | 
Cc1csc2nc(-c3cccc([N+](=O)[O-])c3)c(/C=N/N=C(N)N)n12 | 3.29 | 3.42 | 3.15 |  |  | 2.96 | 36.3 | 3.19 | 8.71 | 3.03 |  |  |  |  |  |  |  |  | 
CCCCCCCCCCCCc1ccc(S(=O)(=O)O)cc1.[Cu+2] | > 100 |  | > 100 | > 100 | > 100 | > 100 | > 100 | > 100 | > 100 | > 100 |  |  |  |  |  |  |  |  | 
N#Cc1c(-c2ccc([N+](=O)[O-])cc2)c2c([nH]c1=O)-c1ccccc1CCC2 | > 100 | > 100 | > 100 | > 100 | > 100 | > 100 | > 100 | > 100 | > 100 | > 100 |  |  |  |  |  |  |  |  | 
